Where two headings read alike, the source gives them in different places.
Assays:
[1] = test system: PC-3 prostate cancer cells; test: Clonogenic assay (colony growth), PC-3; type: cell-based, human
Excerpt: (§1) Assays of Rh-123 toxicity were done with three human prostate cancer cell lines, […], et al.: Establishment and characterization of a human prostatic carcinoma cell line, Invest Urol 17:16-23, 1979), DU-145 (Stone […], et al.: Isolation of a human prostatic carcinoma cell line (DU145), Int J Cancer 21:274-281, 1978), and LNCaP (Horoszewitz J, Leong […], et al.: LNCaP model of human prostatic carcinoma, Cancer Res 43:1809-1818, 1983), and a non-tumorigenic diploid prostate fibroblast cell strain (NPF-209) derived in our laboratories from a normal adult prostate. The NPF cells were used as controls, i.e., for comparison. […] Two different in vitro assays were used to assess cell viability following Rh-123 treatment, namely, • i) colony formation by a clonal assay procedure ([…], Ham R G: Clonal growth of human keratinocytes with small amounts of dialyzed serum, In Vitro 16:526-538, 1980); and • ii) viability of cells determined by the MTT assay utilizing previously described techniques (Alley […], Monks A, et al.: Feasibility of drug screening with panels of human tumor cell lines using a microculture tetrazolium assay, Cancer Res 40:589-601, 1988). Clonogenic potential of the treated human prostate cancer cells was determined on 24-hour-old cells seeded in 60 mm disposable dishes (1-2×10^2 cells/dish). […]

Swiss Webster mice = type: in vivo; conditions: s.c. every other day for 2 weeks
Procedure: The toxicity of two solvents for Rh-123, DMSO and alcohol-glucose, was studied in 60-day-old Swiss Webster mice (Simonsen Laboratories, Inc., Gilroy, Calif.). For each solvent there were five groups of five mice each, with the Rh-123 dose per group being 0, 2.0, 7.5, 15, and 20 mg/kg of body weight. A sixth group of five mice were not given any solvent or Rh-123. The solvents, with and without Rh-123, were administered at a concentration of 50% by volume DMSO in distilled water, and 5% alcohol by volume in a 5% by weight solution of glucose in distilled water. […] The concentration of Rh-123 was 5 mg/ml. Appropriate controls were utilized. The mice were injected subcutaneously every other day for 2 weeks.

[2] = test system: NPF non-tumorigenic diploid prostate fibroblast cells; test: MTT cytotoxicity/viability assay, NPF; type: cell-based, human
Excerpt: as §1, with “Cytotoxicity due to Rh-123 treatment was determined with” for “Clonogenic potential of”, “the” for “the treated”, “grown in 96-well disposable microtiter plates. […] The OD540 nm reading is a measure of the number of viable” for “was determined on 24-hour-old”, “present” for “seeded”, “the test sample.” for “60 mm disposable dishes (1-2×10^2 cells/dish).”

[3] = test system: metastatic hormone-refractory prostate cancer; test: Phase I study: prostate specific acid phosphatase in blood after a single dose; type: in vivo, human; conditions: Patient 4, Level II (24 mg/m^2), single infusion
Procedure: The FDA has approved human clinical Phase I study of Rh-123. This phase evaluates the toxicity of Rh-123. The objective of the study is to determine safe dosing levels for Rh-123 starting at a level known to be safe for animals (about 0.3 mg/kg, which is equivalent to about 12 mg/m^2 for the typical prostate cancer patent), and proceeding upward in dosage until signs of moderate toxicity are observed. The Phase I study includes 21 volunteer patients with metastatic hormone-refractory prostate cancer to establish toxicity in a single dose escalation schedule. Only one dose per volunteer participant has been approved to date by the FDA, starting at 12 mg/m^2 at level I (three participants per level), and increasing in subsequent levels until dose-limiting toxicity is observed. Using a solution of four milligrams of Rh-123 per milliliter of a solution which includes 5% alcohol and 5% glucose in distilled water, the FDA has approved the dose escalation schedule shown in Table I: [table] As of the date of this application for patent, seven patients have been treated in accordance with the protocol described above.

[4] = test system: transplantable rat prostate tumor R3327-H (Dunning); conditions: saline suspension, s.c. every other day, 15 mg/kg body weight; cited from earlier work
[5] = test system: LNCaP prostate cancer cells; test: Clonogenic assay (colony growth), LNCaP; type: cell-based, human
Excerpt: as §1

[6] = test system: transplantable tumor P-A III; conditions: cited from earlier work
[7] = test system: autochthonous rat prostate complex adenocarcinoma (ARPCA); test: Induced autochthonous rat prostate adenocarcinoma in L-W rats; type: in vivo; conditions: 15 mg/kg BW s.c. every other day for six doses
Procedure: To determine the effectiveness of Rh-123 on induced autochthonous rat prostate adenocarcinoma developed within the prostate gland and seminal vesicles of L-W rats, thirteen L-W rats were inoculated intravenously with acidified MNU (30 mg/kg of body weight (BW)). Following the single inoculation of MNU, the rats were each implanted subcutaneously with 50 mg TP sealed in a silastic tube. Three implants of TP were administered, each at intervals of 2 months. After a latent period of 4–6 months, small palpable tumors were detected in the abdomen. The rats were then administered Rh-123 (15 mg/kg BW) subcutaneously every other day for six doses. The Rh-123 was dissolved in a 5% (by volume) ethanol-5% (by weight) glucose solution in sterile water at a concentration of 5 mg/ml. The rats were sacrificed 1 week after the last dose of Rh-123 and their tissues were fixed in 10% formalin.

[8] = test system: DU-145 prostate cancer cells; test: MTT cytotoxicity/viability assay, DU-145; type: cell-based, human
Excerpt: as §1, with “comparison. The cells were maintained in disposable plastic culture vessels in a 1:1 mix of Dulbecco's modified Eagle's medium and Ham's F12 (DMEM/F12, from Sigma Chemical Co, St. Louis, Mo.) supplemented with 10% fetal bovine serum (FBS, from HyClone Labs, Inc., Logan, Utah). 3-[4,5-Dimethylthiazol-2-yl]-2,5-diphenyltetrazolium bromide (MTT), DMSO, and other chemicals were also obtained from Sigma.” for “comparison.”, “Cytotoxicity due to Rh-123 treatment was determined with” for “Clonogenic potential of”, “the” for “the treated”, “grown in 96-well disposable microtiter plates. […] The plates were next read at A540 […] with an Emax precision microplate reader (Molecular Devices Corporation, Menlo Park, Calif.). […] The cell-bound dye is dissolved with DMSO and spectrophotometrically quantitated by absorbance at a wavelength of 540 nm. The OD540 nm reading is a measure of the number of viable” for “was determined on 24-hour-old”, “present” for “seeded”, “the test sample.” for “60 mm disposable dishes (1-2×10^2 cells/dish).”

[9] = test system: DU-145 prostate cancer cells; test: Clonogenic assay (colony growth), DU-145; type: cell-based, human
Excerpt: as §1

[10] = test system: PC-3 prostate cancer cells; test: MTT cytotoxicity/viability assay, PC-3; type: cell-based, human
Excerpt: as §1, with “comparison. The cells were maintained in disposable plastic culture vessels in a 1:1 mix of Dulbecco's modified Eagle's medium and Ham's F12 (DMEM/F12, from Sigma Chemical Co, St. Louis, Mo.) supplemented with 10% fetal bovine serum (FBS, from HyClone Labs, Inc., Logan, Utah). 3-[4,5-Dimethylthiazol-2-yl]-2,5-diphenyltetrazolium bromide (MTT), DMSO, and other chemicals were also obtained from Sigma.” for “comparison.”, “Cytotoxicity due to Rh-123 treatment was determined with” for “Clonogenic potential of”, “the” for “the treated”, “grown in 96-well disposable microtiter plates. […] The plates were next read at A540 […] with an Emax precision microplate reader (Molecular Devices Corporation, Menlo Park, Calif.). […] The cell-bound dye is dissolved with DMSO and spectrophotometrically quantitated by absorbance at a wavelength of 540 nm. The OD540 nm reading is a measure of the number of viable” for “was determined on 24-hour-old”, “present” for “seeded”, “the test sample.” for “60 mm disposable dishes (1-2×10^2 cells/dish).”

[11] = test system: LNCaP prostate cancer cells; test: MTT cytotoxicity/viability assay, LNCaP; type: cell-based, human
Excerpt: as §1, with “Cytotoxicity due to Rh-123 treatment was determined with” for “Clonogenic potential of”, “the” for “the treated”, “grown in 96-well disposable microtiter plates. […] The OD540 nm reading is a measure of the number of viable” for “was determined on 24-hour-old”, “present” for “seeded”, “the test sample.” for “60 mm disposable dishes (1-2×10^2 cells/dish).”

[12] = test system: normal human adult prostate fibroblasts (NPF); test: Clonogenic assay (colony growth), NPF; type: cell-based
Excerpt: as §1

## COC(=O)c1ccccc1-c1c2ccc(=N)cc-2oc2cc(N)ccc12.Cl [Rh-123, methyl o-(6-amino-3-imino-3H-xanthen-9-yl) benzoate monohydrochloride]
[1]; PC-3, 10 μg/ml for 72 hours
  suppression of colony growth: Complete suppression
[1]; PC-3, exposure to 10 μg/ml
  colony growth: greatly suppressed
Swiss Webster mice; 15 mg/kg Rh-123 in 50% DMSO, group of five mice
  mortality: one of five mice died
Swiss Webster mice; 20 mg/kg Rh-123 in 50% DMSO, group of five mice
  mortality: Three of five mice died
Swiss Webster mice; 20 mg/kg Rh-123 in alcohol-glucose solution
  mortality: no mortality
[2]; 0–80 μg/ml, FIG. 5
  growth inhibition due to Rh-123 treatment: much less than that observed with tumorigenic cells
[2]; after prolonged Rh-123 exposures
  viability of cells: remained relatively high
[3]
  course of prostate specific acid phosphatase in blood after 48 hours: steadily decreased until two months after the infusion
[4]
  effect on tumor (histology): significant destructive alteration of the acinar cells
[5]; 10 μg/ml for 72 hours
  suppression of colony growth: Complete suppression
[5]; exposure to 10 μg/ml
  colony growth: greatly suppressed
[6]; Rh-123 dissolved in DMSO
  effect on tumor cells: significant destruction of tumor cells
  sensitivity of tumor to Rh-123: highly sensitive
[6]; rat, in vivo
  toxicity in normal cells: no toxicity noted
[6]; remnants of Rh-123-treated tumor
  tumor growth after injection of tumor remnants into untreated susceptible L-W rats: no tumor growth
[7]
  effect on normal surrounding tissue: no change
  gross changes in the tumor mass of the prostate complex: No gross changes
[7]; sacrificed 1 week after last dose
  microscopic examination of tumor tissue of prostate complex: marked cellular and acinar destruction, pyknosis, cytoplasmic smearing, and intraepithelial cyst formation
[8]; DU-145
  recovery of treated cells in Rh-123-free normal growth medium: poor
  relative sensitivity to Rh-123 exposure among the cancer cell lines: more refractory than either the PC-3 or the LNCaP cells
[8]; DU-145, exposed 2 days or longer, concentrations as low as 1.25–2 μg/ml
  loss of viable cells: marked
[9]; DU-145, 10 μg/ml for 72 hours
  suppression of colony growth: Complete suppression
[9]; DU-145, compared with PC-3 and LNCaP
  growth suppression (colony growth): less marked
[10]; PC-3
  recovery of treated cells in Rh-123-free normal growth medium: poor
  relative sensitivity to Rh-123 exposure among the cancer cell lines: most sensitive
[10]; PC-3, exposed 2 days or longer, concentrations as low as 1.25–2 μg/ml
  loss of viable cells: marked
[11]
  recovery of treated cells in Rh-123-free normal growth medium: poor
[11]; exposed 2 days or longer, concentrations as low as 1.25–2 μg/ml
  loss of viable cells: marked
[12]; 72-hour exposure
  maximal suppression of colony growth: 28 % of control
[12]; 72-hour exposure to 50 μg/ml (data not shown)
  suppression of colony growth: Total suppression was not achieved

Source: patent publication US7008961B1, “Composition and method for treating carcinoma” (priority 1995, dated 2006)
